Patent US20240365781A1, “SYNERGISTICALLY EFFECTIVE HERBICIDE COMPOSITION COMPRISING PELARGONIC ACID AND FLAZASULFURON” (Belchim Crop Protection NV, priority 2017, published 2024)

Experiments:
Format in all cases: in vivo
[1] = test system: Poa annua; experiment: post-emergence field trial under rows of apple trees, 150-200 L water/ha (Examples 10-12); settings: 20 g of active compound/ha
Method: (§1) Herbicidal activity was determined by performing a post-emergence test. […] The corresponding mixture was in the form of a spray solution. Besides, spray solutions of individual compositions comprising pelargonic acid or flazasulfuron were used.
(§2) The spray solution was applied on plants of unwanted vegetation present on fields where perennial crops were grown.
(§3) After 5 to 88 days after application of the spray solution, the degree of damage to the unwanted vegetation is rated in % of plants of unwanted vegetation that were killed. Tests were performed on test fields (field trials).

[2] = test system: Capsella bursa-pastoris; experiment: as above; settings: 20 g of active compound/ha
Method: as §1, §2, §3

[3] = test system: Veronica persicae; experiment: as above; settings: 20 g of active compound/ha
Method: as §1, §2, §3

[4] = test system: Trifolium repens; experiment: as above; settings: 20 g of active compound/ha
Method: as §1, §2, §3

[5] = test system: Setaria viridis; experiment: as above; settings: 20 g of active compound/ha
Method: as §1, §2, §3

[6] = test system: Taraxacum officinalis; experiment: as above; settings: 20 g of active compound/ha
Method: as §1, §2, §3

[7] = test system: Lolium multiflorum; experiment: as above; settings: 20 g of active compound/ha
Method: as §1, §2, §3

[8] = test system: Oxalis latifolia; experiment: post-emergence field trial under rows of vines, 150-200 L water/ha (Examples 6-9); settings: flazasulfuron 40 g/ha
Source text: (§4) The expected activity of a given combination of two or three herbicides can be calculated as follows according to a calculation method by Colby (cf. COLBY, S. R.: “Calculating synergistic and antagonistic responses of herbicide combinations”, • Weeds 15, pages 20-22, 1967): • If X=% damage by herbicide (A) at an application rate of m g/ha, • Y=% damage by herbicide (B) at an application rate of n g/ha, • E=the expected damage by herbicides (A) and (B) at application rates of m and n […] and, • then for a combination:
(§5) Individual compositions comprising pelargonic acid or flazasulfuron are compared with a herbicide composition according to the invention comprising pelargonic acid and flazasulfuron.
as §1, §2, §3

[9] = test system: Digitaria sanguinalis; experiment: as above; settings: flazasulfuron 40 g/ha
Source text: as §4, §5, §1, §2, §3

[10] = test system: Digitaria sanguinalis and Setaria pumila; experiment: as above; settings: flazasulfuron 40 g/ha
Source text: as §4, §5, §1, §2, §3

[11] = test system: Bromus oxyodon; experiment: as above; settings: flazasulfuron 40 g/ha
Source text: as §4, §5, §1, §2, §3

[12] = 7 d, pelargonic acid 10880 g/ha
[13] = 14 d, pelargonic acid 5440 g/ha
[14] = 14 d, pelargonic acid 6800 g/ha
[15] = 14 d, pelargonic acid 8160 g/ha
[16] = 14 d, pelargonic acid 10880 g/ha
[17] = 28 d, pelargonic acid 6800 g/ha
[18] = 28 d, pelargonic acid 5440 g/ha
[19] = 28 d, pelargonic acid 8160 g/ha
[20] = 28 d, pelargonic acid 10880 g/ha

Structure (SMILES): COc1cc(OC)nc(NC(=O)NS(=O)(=O)c2ncccc2C(F)(F)F)n1 [Flazasulfuron, 1-(4,6-dimethoxypyrimidin-2-yl)-3-(3-trifluoromethyl-2-pyridylsulfonyl)urea]
- herbicidal effect (%) ([1]; Poa annua/6 d): 10%
- herbicidal effect (%) ([1]; Poa annua/16 d): 53%
- herbicidal effect (%) ([1]; Poa annua/30 d): 60%
- herbicidal effect (%) ([1]; Poa annua/57 d): 58%
- herbicidal effect (%) ([1]; Poa annua/78 d): 83%
- herbicidal effect (%) ([2]; Capsella bursa-pastoris/6 d): 16%
- herbicidal effect (%) ([2]; Capsella bursa-pastoris/16 d): 45%
- herbicidal effect (%) ([2]; Capsella bursa-pastoris/30 d): 55%
- herbicidal effect (%) ([2]; Capsella bursa-pastoris/57 d): 58%
- herbicidal effect (%) ([3]; Veronica persicae/7 d): 20%
- herbicidal effect (%) ([3]; Veronica persicae/16 d): 4%
- herbicidal effect (%) ([3]; Veronica persicae/26 d): 20%
- herbicidal effect (%) ([3]; Veronica persicae/59 d): 0%
- herbicidal effect (%) ([4]; Trifolium repens/7 d): 20%
- herbicidal effect (%) ([4]; Trifolium repens/16 d): 40%
- herbicidal effect (%) ([4]; Trifolium repens/26 d): 63%
- herbicidal effect (%) ([4]; Trifolium repens/59 d): 68%
- herbicidal effect (%) ([5]; Setaria viridis/6 d): 10%
- herbicidal effect (%) ([5]; Setaria viridis/16 d): 50%
- herbicidal effect (%) ([5]; Setaria viridis/30 d): 55%
- herbicidal effect (%) ([5]; Setaria viridis/57 d): 53%
- herbicidal effect (%) ([5]; Setaria viridis/78 d): 43%
- herbicidal effect (%) ([6]; Taraxacum officinalis/5 d): 0%
- herbicidal effect (%) ([6]; Taraxacum officinalis/18 d): 71%
- herbicidal effect (%) ([6]; Taraxacum officinalis/32 d): 83%
- herbicidal effect (%) ([6]; Taraxacum officinalis/61 d): 72%
- herbicidal effect (%) ([6]; Taraxacum officinalis/88 d): 71%
- herbicidal effect (%) ([7]; Lolium multiflorum/5 d): 0%
- herbicidal effect (%) ([7]; Lolium multiflorum/18 d): 79%
- herbicidal effect (%) ([7]; Lolium multiflorum/32 d): 87%
- herbicidal effect (%) ([7]; Lolium multiflorum/61 d): 91%
- herbicidal effect (%) ([7]; Lolium multiflorum/88 d): 89%
- herbicidal effect ([8]; 7 d, pelargonic acid 6800 g/ha): 29%
- herbicidal effect ([8]; 7 d, pelargonic acid 8160 g/ha): 29%
- herbicidal effect [8, 12]: 29%
- herbicidal effect [8, 13]: 49%
- herbicidal effect [8, 14]: 49%
- herbicidal effect [8, 15]: 49%
- herbicidal effect [8, 16]: 49%
- herbicidal effect [8, 17]: 44%
- herbicidal effect ([9]; 7 d, pelargonic acid 5440 g/ha): 51%
- herbicidal effect ([9]; 7 d, pelargonic acid 6800 g/ha): 51%
- herbicidal effect ([9]; 7 d, pelargonic acid 8160 g/ha): 51%
- herbicidal effect [9, 12]: 51%
- herbicidal effect [9, 13]: 80%
- herbicidal effect [9, 14]: 80%
- herbicidal effect [9, 15]: 80%
- herbicidal effect [9, 16]: 80%
- herbicidal effect ([9]; 27 d, pelargonic acid 5440 g/ha): 73%
- herbicidal effect ([9]; 27 d, pelargonic acid 6800 g/ha): 73%
- herbicidal effect ([9]; 27 d, pelargonic acid 8160 g/ha): 73%
- herbicidal effect ([9]; 27 d, pelargonic acid 10880 g/ha): 73%
- herbicidal effect ([9]; 56 d, pelargonic acid 5440 g/ha): 64%
- herbicidal effect ([9]; 56 d, pelargonic acid 6800 g/ha): 64%
- herbicidal effect ([9]; 56 d, pelargonic acid 8160 g/ha): 64%
- herbicidal effect ([9]; 56 d, pelargonic acid 10880 g/ha): 64%
- herbicidal effect ([10]; 7 d, pelargonic acid 5440 g/ha): 13%
- herbicidal effect ([10]; 7 d, pelargonic acid 6800 g/ha): 13%
- herbicidal effect ([10]; 7 d, pelargonic acid 8160 g/ha): 13%
- herbicidal effect [10, 12]: 13%
- herbicidal effect [10, 13]: 91%
- herbicidal effect [10, 15]: 91%
- herbicidal effect [10, 16]: 91%
- herbicidal effect [10, 18]: 90%
- herbicidal effect [10, 17]: 90%
- herbicidal effect [10, 19]: 90%
- herbicidal effect [10, 20]: 90%
- herbicidal effect ([10]; 65 d, pelargonic acid 5440 g/ha): 98%
- herbicidal effect ([10]; 65 d, pelargonic acid 8160 g/ha): 98%
- herbicidal effect ([10]; 65 d, pelargonic acid 10880 g/ha): 98%
- herbicidal effect ([11]; 7 d, pelargonic acid 5440 g/ha): 28%
- herbicidal effect ([11]; 7 d, pelargonic acid 6800 g/ha): 28%
- herbicidal effect ([11]; 7 d, pelargonic acid 8160 g/ha): 28%
- herbicidal effect [11, 12]: 28%
- herbicidal effect [11, 13]: 46%
- herbicidal effect [11, 14]: 46%
- herbicidal effect [11, 15]: 46%
- herbicidal effect [11, 16]: 46%
- herbicidal effect [11, 18]: 78%
- herbicidal effect [11, 17]: 78%
- herbicidal effect [11, 19]: 78%
- herbicidal effect [11, 20]: 78%
